The source of these data is paper PMC9352109, “Novel silkworm (Bombyx mori) sulfotransferase swSULT ST3 is involved in metabolism of polyphenols from mulberry leaves” (PLoS ONE, 2022).

As usually defined, the IC50 is the point on the concentration scale where inhibition reaches its midpoint. Low values mean inhibition by little substance, high ones a need for much substance.

The target in the test is T1, AKR2E8 (Bombyx mori, UniProt A0A8D5RRY4).
T1 sequence (A0A8D5RRY4 1-331 limits assumed): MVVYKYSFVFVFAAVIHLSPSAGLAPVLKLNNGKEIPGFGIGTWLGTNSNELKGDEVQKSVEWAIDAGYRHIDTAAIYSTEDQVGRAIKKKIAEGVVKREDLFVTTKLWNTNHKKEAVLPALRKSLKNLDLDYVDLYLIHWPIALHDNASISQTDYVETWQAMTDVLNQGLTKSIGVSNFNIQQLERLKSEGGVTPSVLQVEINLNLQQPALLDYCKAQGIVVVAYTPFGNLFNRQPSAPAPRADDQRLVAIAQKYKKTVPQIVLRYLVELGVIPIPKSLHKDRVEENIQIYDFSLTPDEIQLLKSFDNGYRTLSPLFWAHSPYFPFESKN
The experiment in a line: NADPH-linked benzaldehyde reduction. In kind it is biochemical. To be noted: 0.1 mM NADPH, 25 μM benzaldehyde, 0.1 M potassium phosphate pH 7.4. The source says: NADPH-linked benzaldehyde reduction on AKR2E8
Take `O=c1cc(-c2ccc(O)cc2)oc2cc(O)cc(O)c12` [Apigenin]: the IC50 was found to be 170 ± 10 nM.

With `O=c1c(-c2ccc(O)cc2)coc2cc(O)ccc12` [Daidzein], inhibition was half-maximal at 34 ± 2.7 nM (IC50).

For `O=c1c(-c2ccc(O)cc2)coc2cc(O)cc(O)c12` [Genistein], the IC50 came to 18 ± 1.4 nM.

On to `O=c1c(O)c(-c2ccc(O)cc2)oc2cc(O)cc(O)c12` [Kaempferol], for which 460 ± 120 nM corresponded to half-maximal inhibition (IC50).

In turn, `O=c1c(O)c(-c2ccc(O)c(O)c2)oc2cc(O)cc(O)c12` [Quercetin] returned an IC50 of 65 ± 1.8 nM.

Turning to `Oc1ccc(/C=C/c2cc(O)cc(O)c2)cc1` [Resveratrol], the IC50 amounted to 550 ± 23 nM.
